Residues, ends and D or L forms follow the SMILES beside them.
Experiments:
[1] = tested on: post-operative adhesion formation; experiment: Modified cecal puncture abdominal surgery, histological assessment of post-operative adhesions (Example 1); assay type: in vivo, male Wistar rats; conditions: for complications due to intraperitoneal use: 0.3-1.5 g/kg intraperitoneally; for reducing and/or preventing post-operative adhesions (including secondary adhesions): administered intra-peritoneally; for acute inflammatory response (macrophages and macrophage chemotactic proteins): days 3-7, vs saline and non-treatment surgical groups
Procedure: 70 plus male Wistar rats (over 350 g each) were assessed histologically on post-operative days 1,3,5,7,10, 30, and at about 6 weeks. The rats were randomly distributed based on the mode of treatment, type of sutures and presence or absence of hemorrhage during surgery. Initially, there were three surgery groups (alanyl-glutamine treatment, saline, no treatment) plus a control (no surgery).
The rats were anaesthetized with halothane/Ketamine. Open surgery involving a midline sub-umbilical incision and a modified cecal puncture with pulstring to prevent soilage after abdominal closure was done. The procedure involved some fecal extrusion, mimicking clinical scenarios of iatrogenic/traumatic perforations of the bowel. Alanyl-glutamine [Degussa; Coubevoie, France] […] (1.5 g/kg) was instilled into the peritoneal cavity from a syringe. The cecum, abdomen, and the skin were closed in layers using the same suture. Various absorbable (3/0 Vicryl™, 3/0 Monocryl™, 3/0 PDS™, 2/0 Maxon™) and non-absorbable sutures (3/0 Prolene™, 3/0 Ethibond™, 4/0 & 5/0 Surgilene™, 3/0 Novafil™) were used. The wound was infiltrated with local anesthetic. The animals were given sufficient chow to eat (20 g/day≈2 mmole/kg/day). The gastrointestinal tract and omentum were harvested from the stomach to the sigmoid colon and fixed in formaldehyde solution for evaluation.
The severity of adhesions was assessed histologically using standard Haematoxylin & Eosin and Masson trichrome stained slides. The latter helped delineate the degree of fibrosis and collagen deposition.
Semi-quantitative analysis was done by scoring the average number of milky spots per high-power-field (HPF). Quantitative statistical analysis was done using the T-test between the experimental groups. Milky spots are a marker for inflammation and adhesion formation.

[2] = tested on: post-operative adhesion formation; experiment: as above; assay type: in vivo, male Wistar rats; conditions: 0.3 g/kg intraperitoneal
secondary adhesions = experiment: Secondary adhesions after adhesiolysis in rats with mesh implants, Zuhlke score (Example 3); assay type: in vivo, Sprague-Dawley rats; conditions: three weeks after adhesiolysis and installation, six months after initial surgery
Procedure: Adhesions tend to recur once in place. We examined the effect of alanyl-glutamine treatment on such secondary adhesions. The modified caecal perforation with pulstring closure procedure described in Example 1 was performed on 9 Sprague-Dawley rats. These were divided into 5 groups, each group receiving a different form of mesh (INTERCEED™; PROCEED™; BARD™ composite; prolene; and a mesh which was allowed to be “infected” by repeated re-opening of the wound). The surgical procedure with mesh implacement was performed without application of a glutamine source. Six months after initial surgery, a laparotomy was performed on each rat then adhesiolysis followed by installation of alanyl-glutamine.

[3] = tested on: post-operative adhesion formation; experiment: Surgery as in Example 1 with Marlex mesh inserted, Zuhlke adhesion score (Example 2); assay type: in vivo, rats; conditions: day 90
Procedure: Previous studies show a high incidence of adhesion formation when surgical mesh is employed as a reinforcing material [6a, 6b]. We repeated trials as described in Example 1, inserting Marlex™ mesh during the procedure on the surgical groups.
Severity of adhesions was assessed at day 90 using the adhesion score of Zuhlke, et al.. This scoring procedure has been described in the literature for assessment of other potential treatments for adhesions. […] This differs from previous measurements of adhesions using polypropylene mesh which reported up to about 90% adhesion formation [6a].

Structure (SMILES) | complications due to intraperitoneal use [1] | reducing and/or preventing post-operative adhesions (including secondary adhesions) ([1]; summary statement) | acute inflammatory response (macrophages and macrophage chemotactic proteins) [1] | effectiveness of dosage ([1]; 1.5 g/kg intraperitoneal) | histological appearance of the peritoneum (adhesion) ([1]; 10th post-operative day, intraperitoneal, vs untreated and saline treated surgical groups) | milky spots per 5 high power field (5HPF) in the peritoneum ([1]; controls 1 per 5HPF, untreated surgical group 6-7) | adhesions in all the suture groups (braided and monofilament, absorbable and non-absorbable) ([1]; intraperitoneal) | effect in adhesion prevention compared with L-glutamine ([1]; summary statement) | effectiveness of dosage [2] | recurrence of adhesions (secondary adhesions), scored according to Zuhlke, et al. (secondary adhesions) | adhesion score of Zuhlke, et al. [3]
NC(=O)CC[C@H](N)C(=O)O [L-glutamine] | did not observe complications | effective | reduction, but to a lesser extent | – | – | – | – | – | – | – | –
C[C@H](N)C(=O)N[C@@H](CCC(N)=O)C(=O)O [alanyl-glutamine] (H-Ala-Gln-OH) | did not observe complications | effective | markedly reduced | effective | very minimal adhesion | the same as the controls | prevented adhesions | more pronounced | effective | no secondary adhesions were seen | 0-1
